Experiment [1] concerns SARS-CoV-2-ΔOrf7a-NLuc virus. Briefly: microbe, parasite or virus in culture. Format: cell-based.
The next experiment deals with recombinant NLuc. In kind it is biochemical.
Setting [2] is: recombinant NLuc activity relative to DMSO.
The mark [3] stands for this setting: recombinant NLuc, first read column.
The mark [4] stands for this setting: recombinant NLuc, fourth read column.
The mark [5] stands for this setting: recombinant NLuc, third read column.

Structures can show the parent of a compound that is named as a salt. Where two headings read alike, the source gives them in different places.

Consider `COc1ccccc1OCC(O)CN1CCN(CC(=O)Nc2c(C)cccc2C)CC1` (centres unmarked) [Ranolazine], for which the “% activity in Vero 100PFU screen” value in experiment [1] was determined as 167%. The “Relative Recombinant NLUC” value in the experiment with recombinant NLuc (setting [2]) was 0.9679. In addition, in the experiment with recombinant NLuc (setting [3]), the “Reads Counts per second (read 1)” value was found to be 359507 Counts per second. Moreover, the “Reads Counts per second (read 4)” value in the experiment on recombinant NLuc (setting [4]) is on record as 367791 Counts per second. Also, the “Reads Counts per second (read 3)” value with recombinant NLuc (setting [5]) is 367539 Counts per second.
The like results for `N#CC[C@H](C1CCCC1)n1cc(-c2ncnc3[nH]ccc23)cn1` [Ruxolitinib (INCB018424), Ruxolitinib] were, in that order, 169%, 0.8381, 314540 Counts per second, 316727 Counts per second and 317488 Counts per second.
`CC(C)(C)c1ccc(C(=O)CCCN2CCC(OC(c3ccccc3)c3ccccc3)CC2)cc1` [Ebastine]: the activity at 10 µM in experiment [1] (Severe acute respiratory syndrome coronavirus 2, Vero, 72 h, […], 1 = untreated, 0 = total inhibition, read-out: Mean relative luminescence (n=4)) amounted to 0.793%. In addition, the “Reads Counts per second (read 1)” value with recombinant NLuc (setting [3]) is reported as 323732 Counts per second. For the same compound, in the experiment with recombinant NLuc (setting [4]), the “Reads Counts per second (read 4)” value is reported as 326603 Counts per second. For the same compound, the “Reads Counts per second (read 3)” value in the experiment on recombinant NLuc (setting [5]) is 324560 Counts per second.
`C[C@](N)(Cc1ccc(O)c(O)c1)C(=O)O` [Methyldopa]: in experiment [1], the “% activity in Vero 100PFU screen” value was found to be 175%. Further, the “Relative Recombinant NLUC” value in the experiment on recombinant NLuc (setting [2]) stood at 0.9666. The “Reads Counts per second (read 1)” value in the experiment on recombinant NLuc (setting [3]) is reported as 361429 Counts per second. Besides, in the experiment with recombinant NLuc (setting [4]), the “Reads Counts per second (read 4)” value is 367357 Counts per second. In the experiment with recombinant NLuc (setting [5]), the “Reads Counts per second (read 3)” value is recorded as 364798 Counts per second.
For `C[C@H](CCC(=O)O)[C@H]1CC[C@H]2[C@@H]3CC[C@@H]4C[C@H](O)CC[C@]4(C)[C@H]3CC[C@]12C` [Lithocholic Acid], in that order: 205%, 0.9342, 350340 Counts per second, 353302 Counts per second and 350189 Counts per second.
As to `N[C@@H](Cc1ccc(O)c(O)c1)C(=O)O` [Levodopa], the “% activity in Vero 100PFU screen” value in experiment [1] amounted to 233%. In addition, the “Relative Recombinant NLUC” value with recombinant NLuc (setting [2]) was 0.839. Moreover, the “Reads Counts per second (read 1)” value in the experiment with recombinant NLuc (setting [3]) is reported as 304150 Counts per second. Also, the “Reads Counts per second (read 4)” value in the experiment with recombinant NLuc (setting [4]) came out at 316577 Counts per second. Besides, the “Reads Counts per second (read 3)” value in the experiment with recombinant NLuc (setting [5]) was found to be 322065 Counts per second.
The like results for `CN(C(=O)CN(CCO)CC(=O)N(C)C(C)(C)Cc1ccccc1)C(C)(C)Cc1ccccc1` [Oxethazaine] were, in that order, 167%, 0.8736, 330534 Counts per second, 321724 Counts per second and 331517 Counts per second.
As for `COc1ccc2c(c1OC)C(=O)O[C@@H]2[C@H]1c2c(cc3c(c2OC)OCO3)CCN1C` [Noscapine HCl], in experiment [1], the “% activity in Vero 100PFU screen” value is 213%. Moreover, the “Relative Recombinant NLUC” value in the experiment on recombinant NLuc (setting [2]) is recorded as 0.9502. The “Reads Counts per second (read 1)” value in the experiment on recombinant NLuc (setting [3]) is on record as 358232 Counts per second. Moreover, the “Reads Counts per second (read 4)” value with recombinant NLuc (setting [4]) worked out at 354994 Counts per second. In the experiment on recombinant NLuc (setting [5]), the “Reads Counts per second (read 3)” value is reported as 362883 Counts per second.
Turning to `O=C(O)[C@H]1O[C@@H](Oc2cc3oc(-c4ccccc4)cc(=O)c3c(O)c2O)[C@H](O)[C@@H](O)[C@@H]1O` [Baicalin], the “% activity in Vero 100PFU screen” value in experiment [1] amounted to 164%. Also, in the experiment on recombinant NLuc (setting [2]), the “Relative Recombinant NLUC” value turned out to be 0.9439. In addition, the “Reads Counts per second (read 1)” value in the experiment on recombinant NLuc (setting [3]) worked out at 353023 Counts per second. Moreover, the “Reads Counts per second (read 4)” value in the experiment with recombinant NLuc (setting [4]) turned out to be 357276 Counts per second. Moreover, the “Reads Counts per second (read 2)” value with recombinant NLuc (recombinant NLuc) turned out to be 358945 Counts per second. Also, in the experiment on recombinant NLuc (setting [5]), the “Reads Counts per second (read 3)” value was 357158 Counts per second.
Turning to `O=S(=O)(O)c1cc(O)ccc1O` [Ethamsylate], in experiment [1], the “% activity in Vero 100PFU screen” value is listed as 167%. Besides, the “Relative Recombinant NLUC” value in the experiment on recombinant NLuc (setting [2]) is 1.029. Also, the “Reads Counts per second (read 1)” value in the experiment on recombinant NLuc (setting [3]) turned out to be 388357 Counts per second. In the experiment with recombinant NLuc (setting [4]), the “Reads Counts per second (read 4)” value stood at 386776 Counts per second. For the same compound, the “Reads Counts per second (read 3)” value in the experiment on recombinant NLuc (setting [5]) is given as 391647 Counts per second.
As to `O=C(O)COCCN1CCN(C(c2ccccc2)c2ccc(Cl)cc2)CC1` (centres unmarked) [Cetirizine], the “% activity in Vero 100PFU screen” value in experiment [1] is on record as 161%. In addition, the “Relative Recombinant NLUC” value in the experiment on recombinant NLuc (setting [2]) is listed as 0.4486. Also, in the experiment with recombinant NLuc (setting [3]), the “Reads Counts per second (read 1)” value was determined as 170134 Counts per second. The “Reads Counts per second (read 4)” value in the experiment with recombinant NLuc (setting [4]) is reported as 171706 Counts per second. Further, the “Reads Counts per second (read 3)” value with recombinant NLuc (setting [5]) came to 168670 Counts per second.
On to `CCS(=O)(=O)N1CC(CC#N)(n2cc(-c3ncnc4[nH]ccc34)cn2)C1` [Baricitinib phosphate], for which, in experiment [1], the “% activity in Vero 100PFU screen” value was 199%. Further, in the experiment on recombinant NLuc (setting [2]), the “Relative Recombinant NLUC” value amounted to 0.9095. Moreover, the “Reads Counts per second (read 1)” value with recombinant NLuc (setting [3]) was 337511 Counts per second. Moreover, the “Reads Counts per second (read 4)” value in the experiment with recombinant NLuc (setting [4]) was determined as 349331 Counts per second. In the experiment with recombinant NLuc (recombinant NLuc), the “Reads Counts per second (read 2)” value is on record as 341167 Counts per second. For the same compound, in the experiment with recombinant NLuc (setting [5]), the “Reads Counts per second (read 3)” value came to 346435 Counts per second.
As to `Cc1cnc(NC(=O)C2=C(O)c3ccccc3S(=O)(=O)N2C)s1` [Meloxicam (Mobic), Meloxicam], the “% activity in Vero 100PFU screen” value in experiment [1] is given as 178%. In addition, the “Relative Recombinant NLUC” value with recombinant NLuc (setting [2]) stood at 0.824. For the same compound, in the experiment with recombinant NLuc (setting [3]), the “Reads Counts per second (read 1)” value was determined as 308460 Counts per second. The “Reads Counts per second (read 4)” value in the experiment on recombinant NLuc (setting [4]) is given as 312953 Counts per second. Besides, in the experiment on recombinant NLuc (setting [5]), the “Reads Counts per second (read 3)” value is reported as 309204 Counts per second.
As to `CC(C)(C)NC(=O)N[C@H](C(=O)N1C[C@H]2[C@@H]([C@H]1C(=O)NC(CC1CCC1)C(=O)C(N)=O)C2(C)C)C(C)(C)C` (some centres unmarked) [Boceprevir], the “% activity in Vero 100PFU screen” value in experiment [1] came out at 178%. In the experiment on recombinant NLuc (setting [2]), the “Relative Recombinant NLUC” value is reported as 0.9177. Besides, the “Reads Counts per second (read 1)” value with recombinant NLuc (setting [3]) turned out to be 341877 Counts per second. In the experiment on recombinant NLuc (setting [4]), the “Reads Counts per second (read 4)” value came out at 349417 Counts per second. For the same compound, the “Reads Counts per second (read 2)” value in the experiment on recombinant NLuc (recombinant NLuc) amounted to 348889 Counts per second. Besides, in the experiment with recombinant NLuc (setting [5]), the “Reads Counts per second (read 3)” value came out at 346623 Counts per second.
In the case of `CC[C@@H]1/C=C(\C)C[C@H](C)C[C@H](OC)[C@H]2O[C@@](O)(C(=O)C(=O)N3CCCC[C@H]3C(=O)O[C@H](/C(C)=C/[C@@H]3CC[C@@H](O)[C@H](OC)C3)[C@H](C)[C@@H](O)CC1=O)[C@H](C)C[C@@H]2OC` [Ascomycin(FK 520), Ascomycin], in experiment [1], the “% activity in Vero 100PFU screen” value is 171%. The “Relative Recombinant NLUC” value in the experiment with recombinant NLuc (setting [2]) is 0.8402. For the same compound, the “Reads Counts per second (read 1)” value in the experiment on recombinant NLuc (setting [3]) came to 312887 Counts per second. Also, the “Reads Counts per second (read 4)” value with recombinant NLuc (setting [4]) amounted to 314498 Counts per second. For the same compound, in the experiment with recombinant NLuc (recombinant NLuc), the “Reads Counts per second (read 2)” value is 325360 Counts per second. For the same compound, in the experiment on recombinant NLuc (setting [5]), the “Reads Counts per second (read 3)” value is reported as 316950 Counts per second.
`C[N+]1(C)CCCC(OC(=O)C(O)(c2ccccc2)c2ccccc2)C1` (centres unmarked) [Mepenzolate Bromide]: the “% activity in Vero 100PFU screen” value in experiment [1] is recorded as 175%. In the experiment on recombinant NLuc, the “Reads Counts per second (read 1)” value is recorded as 330221 Counts per second, the “Reads Counts per second (read 3)” value is on record as 339233 Counts per second, the “Reads Counts per second (read 4)” value stood at 336213 Counts per second and the “Relative Recombinant NLUC” value was determined as 0.8896.

The values are drawn from article PMC8428568, “Discovery of re-purposed drugs that slow SARS-CoV-2 replication in human cells” (PLoS Pathogens, 2021).
